Measurements from US20180326022A1, “COMPOSITIONS AND METHODS FOR IMPROVING HEART FUNCTION AND TREATING HEART FAILURE” (The Trustees of the University of Pennsylvania, priority 2017, published 2018).

Columns and labels:
[1] = tested on: detyrosinated tubulin; experiment: Western blotting of cardiomyocyte lysates (TTL, α-, detyr-, tyr-tubulin); assay type: cell-based; details: rat cardiomyocytes; PTL treatment; shTTL; short term EpoY
Protocol: (§1) Viral constructs were permitted to express for 24-72 hours with Moi=100-200. Parthenolide (Fisher Scientific NC9013142) treatment was carried out at room temperature for 2 hours at 10 μM. All experiments were performed within 48 hours of isolation, except those involving shTTL, which were allowed 72 hours to improve knockdown efficiency.
For analysis of proteins expression levels quantitative Western blots were performed using infrared fluorescence imaging on an Odyssey Imager (LI-COR). Cell homogenates were prepared in ice-cold IGEPAL lysis buffer. After 1 freezing cycle lysates were spun at 18,000×g for 5 min. Aliquots of supernatants were mixed with 4× sample buffer (LI-COR, 928-40004) containing 10% BME, boiled for 6 min., and resolved on sodium dodecyl sulfate (SDS)-polyacrylamide gel electrophoresis Tris-glycine gels (Bio-Rad). Proteins were transferred to a membrane on Mini Trans-Blot Cell (Bio-Rad), blocked 1 h in Odyssey Blocking Buffer (TBS) (LI-COR, 927-50000), and probed with the corresponding primary antibody (see list below) for 2 h at room temperature. Membranes were then rinsed with TBST 4 times for 5 min, and incubated with secondary antibodies (below) for 1.5 h at room temperature. Membranes were rinsed again with TBST and then imaged on Odyssey Imager. Image analysis was performed using Image Studio Lite software (LI-COR). Fluorescent band intensity was always normalized to GAPDH loading control. Analysis of human tissue samples for levels of detyrosinated tubulin was performed blinded to the experimental groups.

[2] = tested on: rat cardiomyocytes; experiment: Calcium measurements (Fluo-3 transients); assay type: cell-based; details: rat ventricular myocytes; 2 hrs of 10 μM EpoY
Protocol: Myocytes were loaded with Fluo-3 by 20 min incubation with 1 μM Fluo-3-acetoxymethyl ester (Invitrogen) and 0.01% Pluronic F127 (a poloxamer made by BASF, Florham Park N.J., USA), and allowed an additional 10 min for de-esterification. Cells were scanned using a 488 nm argon ion laser in confocal line-scan mode at 1.92 ms/line. Cells were electrically paced at 1 Hz for 20 s to achieve steady state; the final 5 traces of the pacing protocol were pooled and analyzed for calcium transient properties. The measured fluorescence (F) throughout the transient was normalized to the resting fluorescence prior to stimulation (F0) to normalize for heterogeneity in dye loading.

[3] = tested on: primary adult rat cardiomyocytes; experiment: Cell contractility (sarcomere shortening, 1 Hz pacing); assay type: cell-based; details: for contraction amplitudes and velocities: primary adult rat cardiomyocytes, vinblastine 20 μM 2 hr, nocodazole 1 μM 30 min, costunolide 10 μM 2 hr
Protocol: as §1
Experiments were performed in custom-fabricated cell chambers (Ionoptix) mounted on an LSM Zeiss 780 inverted confocal microscope using a 40× oil 1.4 NA objective and transmitted light camera (IonOptix MyoCam-S). For contractility assays, cells were maintained in NT solution and electrical field stimulation was provided at 1 Hz with a myopacer (IonOptix MYP100) through platinum electrodes lowered into the bath. Sarcomere length was measured optically by Fourier transform analysis (IonWizard, IonOptix). After 15 s of 1 Hz pacing to achieve steady state, five traces were recorded and analyzed.

[4] = tested on: human myocytes; experiment: Nanoindentation stiffness measurements; assay type: cell-based; details: failing human myocytes; 10 μM, 2 hours
Protocol: (§2) Viable myocytes were concentrated by gravity (5-7 min) and supernatant was aspirated to remove dead cells. Myocytes were resuspended in NT solution containing 1 mM Ca^2+ and concentrated by gravity (5-7 min) again. Cardiomyocytes used acutely were maintained in NT solution for up to 6 hours. Myocytes were treated with 10 μM parthenolide (Fisher Scientific NC9013142 or Sigma P0667) or 10 μM colchicine (Sigma) at room temperature in NT solution for 2 hours. Experiments were performed within 6 hours of isolation, except for those involving viral transduction in cultured cells.
MatTek glass bottom dish was coated 5 μl of 0.5 mg/ml laminin and air dried for 10 min. Culture medium was F-10 (1×) Nutrient Mixture (Ham) [+] L-Glutamine (Life Technologies, 11550-043) supplemented with insulin-transferrin selenium-X (Gibco, 51500-056), 20 mM HEPES, 1 μg/μl primocin (Invivogen, ant-pm-1), 0.4 mM extra CaCl2, 5% FBS, 25 μM cytochalasin D (Cayman, 11330). Viable myocytes were concentrated and a proper amount of medium was added in culture so that neighboring cells were not in direct contact. […]
Mechanical properties at the microscopic scale were measured using nanoindentation (Piuma, Optics11, The Netherlands). […] The Young's moduli were calculated automatically by the software, by fitting the force vs. indentation curve to the Hertz equation. […]

[5] = tested on: cardiac and skeletal muscle; details: 10 μM; refs (13), (8); cited from earlier work
[6] = tested on: human myocytes; experiment: Cell contractility of human myocytes (0.5 Hz); assay type: cell-based
Protocol: as §2
MatTek glass bottom dish was coated 5 μl of 0.5 mg/ml laminin and air dried for 10 min. Culture medium was F-10 (1×) Nutrient Mixture (Ham) [+] L-Glutamine (Life Technologies, 11550-043) supplemented with insulin-transferrin selenium-X (Gibco, 51500-056), 20 mM HEPES, 1 μg/μl primocin (Invivogen, ant-pm-1), 0.4 mM extra CaCl2, 5% FBS, 25 μM cytochalasin D (Cayman, 11330). Viable myocytes were concentrated and a proper amount of medium was added in culture so that neighboring cells were not in direct contact. Viral constructs were permitted to express for 48 hours with Moi=100-200. Adenoviral TTL-IRES-dsRed and EMTB-3x GFP were transduced in human myocytes as previously performed in rat myocytes. Myocytes were replenished with fresh warm medium without cytochalasin D before calcium and contractility measurements.
Experiments were performed as described in Example 1 with some modification. Contractility is measured in custom-fabricated cell chambers (Ionoptix) mounted on an LSM Zeiss 880 inverted confocal microscope using a 40× oil 1.4 NA objective and transmitted light camera (IonOptix MyoCam-S). Myoyctes were maintained in NT solution (for freshly isolated myocytes) or culture medium (without cytochalasin D, for cultured myocytes) at room temperature and electrical field stimulation was provided at 0.5 Hz with a myopacer (IonOptix MYP100) through platinum electrodes lowered into the bath. Sarcomere length was measured optically by Fourier transform analysis (IonWizard, IonOptix). After 10-30 s of 0.5 Hz pacing to achieve steady state, five traces were recorded and analyzed. If not specified, contractility data was obtained at room temperature.
To test whether the contractile improvement over MT destabilization remains under more physiological conditions, both 0.5 Hz and 1 Hz contractions at 37 C were recorded and analyzed in a small subset of isolated human myocytes (1 NF and 1 failing heart, FIG. 29C).

[7] = tested on: human myocytes; experiment: Calcium measurements in human myocytes; assay type: cell-based
Protocol: as §2
Calcium measurements were carried out as described in Example 1 with the following modifications. Myocytes were loaded with 1 μM Fluo-3-acetoxymethyl ester (Invitrogen) and 15% Pluronic F127 (a poloxamer made by BASF, Florham Park, N.J., USA) for 15 minutes. Cells were scanned using a 488-nm argon ion laser in confocal line-scan mode at 0.909 ms/line. Cells were electrically paced at 0.5 Hz at room temperature for 30 s to achieve steady state; five steady-state transients of each myocyte were averaged, pooled in groups and analyzed for calcium transient properties. The measured fluorescence (F) throughout the transient was normalized to the resting fluorescence prior to stimulation (F0) to normalize for heterogeneity in dye loading.

Compound: CCOC(=O)C1O[C@@H]1C(=O)N[C@@H](Cc1ccc(O)cc1)C(=O)O (some centres unmarked) [EpoY]
- alpha / total tubulin levels (western blot) [1]: without changing
- detyrosinated tubulin (western blot) [1]: specifically reduces detyrosination
- electrically evoked [Ca2+]i transients [2]: not changed
- contractility (amplitude of contraction, velocity of contraction and relaxation) ([3]; rat ventricular myocytes, 2 hrs of 10 μM EpoY): enhanced

Compound: COc1cc2c(c(OC)c1OC)-c1ccc(OC)c(=O)cc1[C@@H](NC(C)=O)CC2 [colchicine, (S)—N-(5,6,7,9-tetrahydro-1,2,3,10-tetramethoxy-9 oxobenzol[a]heptalen-7-yl) acetamide]
- viscoelasticity (Emax and EΔ) [4]: robustly reduced viscoelasticity
- effect on microtubules [5]: broadly depolymerizes MTs
- shortening amplitude and contractile velocities ([6]; NF human myocytes, 10 μM, 2 hours): modest (yet significant) increases
- restoration of lost function (contractile velocities vs NF benchmark) ([6]; failing human myocytes): ~50%
- shortening amplitude and velocity, speed of relaxation ([6]; failing human myocytes, 10 μM, 2 hours): robustly improved
- Ca2+ cycling ([7]; any group (NF and failing human myocytes)): no significant effect
- impaired [Ca2+]i cycling ([7]; failing human myocytes): neither colch nor PTL treatment improved

Compound: C=C1C(=O)O[C@@H]2/C=C(\C)CC/C=C(\C)CC[C@@H]12 [costunolide, (3aS,6E,10E,11aR)-6,10-dimethyl-3-methylidene-3a,4,5,8,9,11a-hexahydrocyclodeca[b]furan-2-one]
- contraction amplitudes and velocities [3]: effective to increase

Compound: COC(=O)Nc1nc2ccc(C(=O)c3cccs3)cc2[nH]1 [nocodazole]
- contraction amplitudes and velocities [3]: effective to increase

Compound: CC[C@]1(O)C[C@@H]2CN(CCc3c([nH]c4ccccc34)[C@@](C(=O)OC)(c3cc4c(cc3OC)N(C)[C@H]3[C@@](O)(C(=O)OC)[C@H](OC(C)=O)[C@]5(CC)C=CCN6CC[C@]43[C@@H]65)C2)C1 [vinblastine]
- contraction amplitudes and velocities [3]: effective to increase
